Test results published in patent US12049463B2, “Crystalline form of Tolebrutinib” (GENZYME CORPORATION, priority 2020, dated 2024).
“Also recorded” adds a separate entry of the source.

What was measured:
Type in all cases: physicochemical
[1] = Physical and chemical stability of Form CSI on storage (purity by UPLC, solid form by XRPD); settings: for Time for which crystalline state doesn't change (stable): open and sealed package
Excerpt: X-ray powder diffraction patterns in the present disclosure were acquired by a Bruker X-ray powder diffractometer. The parameters of the X-ray powder diffraction method of the present disclosure are as follows:
(§1) The related substance in the present disclosure was detected by UPLC and the parameters are shown below.
Said “open packaged” is putting the sample into a glass vial, covering the vial with aluminum foil, and punching 5-10 holes on the foil.
Said “sealed packaged” is putting the sample into a glass vial, capping the vial tightly, and sealing the vial in an aluminum foil bag.
A certain amount of Form CSI of the present disclosure and prior art amorphous were weighed and stored under 25° C./60% RH, 40° C./75% RH and 60° C./75% RH conditions, respectively. The purity and solid form were determined by UPLC and XRPD.

[2] = Stability at high temperature (80° C., purity by UPLC); settings: for Chemical stability in words / Final purity / Purity change: 2 days; for Final purity / Purity change: glass vial with cap; for Initial purity: before storage at 80° C.
Method: as §1
Approximately 10 mg of Form CSI of the present disclosure and prior art amorphous were stored at 80° C. for 2 days, and the initial and final purities were determined by UPLC, as shown in Table 11.

[3] = Hygroscopicity by dynamic vapor sorption (DVS); settings: for Weight gain at 80% RH: 25° C.; for Hygroscopicity class: weight gain at 80% RH, Chinese Pharmacopoeia definition
Method: Dynamic Vapor Sorption (DVS) was measured via an SMS (Surface Measurement Systems Ltd.) intrinsic DVS instrument. Typical Parameters for DVS test are as follows:
Gas and flow rate: nitrogen, 200 mL/min
RH range: 0% RH to 95% RH
Certain amounts of Form CSI of the present disclosure and prior art amorphous were sampled for hygroscopicity tests using dynamic vapor sorption (DVS) instrument. The weight change at each relative humidity is recorded during the cycle of 0% RH-95% RH-0% RH at 25° C., and the experimental results are listed in Table 12. The DVS plots of Form CSI and amorphous are as depicted in FIG. 8 and FIG. 9, respectively.
Description and definition of hygroscopicity (general notice 9103 drug hygroscopicity test guidelines in 2020 edition of Chinese Pharmacopoeia, experimental condition: 25±1° C., 80±2% RH): […]

[4] = XRPD before and after formulation process; settings: before and after the formulation process
Method: According to the formulation and process in Table 13 and Table 14, the drug products were prepared with an appropriate amount of Form CSI of the present disclosure. XRPD were tested before and after formulation.

[5] = 25° C./60% RH, open packaged, 6 months
[6] = 25° C./60% RH, sealed packaged, 6 months
[7] = 40° C./75% RH, open packaged, 6 months
[8] = 40° C./75% RH, sealed packaged, 6 months
[9] = 60° C./75% RH, open packaged, 1 month
[10] = 60° C./75% RH, sealed packaged, 1 month

C=CC(=O)N1CCC[C@@H](n2c(=O)n(-c3ccc(Oc4ccccc4)cc3)c3c(N)nccc32)C1 [Amorphous, (R)-1-(1-acryloylpiperidin-3-yl)-4-amino-3-(4-phenoxyphenyl)-1H-imidazo[4,5-c]pyridin-2(3H)-one]
Impurity number exceed the qualificated threshold [1, 5]: 1 | Purity [1, 5]: 99.57% | Purity change [1, 5]: −0.23% | Solid form [1, 5]: Amorphous | Impurity number exceed the qualificated threshold [1, 6]: 1 | Purity [1, 6]: 99.65% | Purity change [1, 6]: −0.15% | Solid form [1, 6]: Amorphous | Purity decrease ([1]; 40° C./75% RH, open package, 6 months): 3.46% | Impurity number exceed the qualificated threshold [1, 7]: 4 | Purity [1, 7]: 96.34% | Purity change [1, 7]: −3.46% | Solid form [1, 7]: Amorphous | Impurity number exceed the qualificated threshold ([1]; 40° C./75% RH, open packaged, 6 months, listed as prior art amorphous): four | Impurity number exceed the qualificated threshold ([1]; 40° C./75% RH, open packaged, 6 months, listed as prior art solid): four | Impurity number exceed the qualificated threshold [1, 8]: 2 | Purity [1, 8]: 99.18% | Purity change [1, 8]: −0.62% | Solid form [1, 8]: Amorphous | Purity decrease ([1]; 60° C./75% RH, open package, 1 month): over 6.3% | Impurity number exceed the qualificated threshold [1, 9]: 4 | Purity [1, 9]: 93.48% | Purity change [1, 9]: −6.32% | Solid form [1, 9]: Amorphous | Impurity number exceed the qualificated threshold ([1]; 60° C./75% RH, open packaged, 1 month, listed as prior art amorphous): four | Impurity number exceed the qualificated threshold ([1]; 60° C./75% RH, open packaged, 1 month, listed as prior art solid): four | Purity decrease ([1]; 60° C./75% RH, sealed package, 1 month): 2.76% | Impurity number exceed the qualificated threshold [1, 10]: 2 | Purity [1, 10]: 97.04% | Purity change [1, 10]: −2.76% | Solid form [1, 10]: Amorphous | Impurity number exceed the qualificated threshold ([1]; 60° C./75% RH, sealed packaged, 1 month, listed as prior art amorphous): two | Impurity number exceed the qualificated threshold ([1]; 60° C./75% RH, sealed packaged, 1 month, listed as prior art solid): two | Impurity number exceed the qualificated threshold ([1]; Initial (before storage)): 1 | Purity ([1]; Initial (before storage)): 99.80% | Chemical stability in words ([2]; 80° C.): significant degradation | Final purity ([2]; 80° C.): 98.64% | Purity change ([2]; 80° C.): −1.16% | Initial purity [2]: 99.80% | Weight gain at 80% RH ([3]; DVS, listed as Prior art solid): 3.69% | Weight gain at 80% RH ([3]; DVS, listed as prior art solid): 3.69% | Hygroscopicity class ([3]; listed as prior art solid): hygroscopic

C=CC(=O)N1CCC[C@@H](n2c(=O)n(-c3ccc(Oc4ccccc4)cc3)c3c(N)nccc32)C1 [Form CSI, (R)-1-(1-acryloylpiperidin-3-yl)-4-amino-3-(4-phenoxyphenyl)-1H-imidazo[4,5-c]pyridin-2(3H)-one]
Chemical purity during storage ([1]; 25° C./60% RH, 6 months): above 99.8% | Time for which crystalline state doesn't change (stable) ([1]; 25° C./60% RH): at least 6 months | Impurity number exceed the qualificated threshold [1, 5]: 0 | Purity [1, 5]: 99.81% | Purity change [1, 5]: −0.05% | Solid form [1, 5]: Form CSI | Impurity number exceed the qualificated threshold [1, 6]: 0 | Purity [1, 6]: 99.89% | Purity change [1, 6]: 0.03% | Solid form [1, 6]: Form CSI | Chemical purity during storing ([1]; 40° C./75% RH 6 months and 60° C./75% RH 1 month): above 99.8% | Time for which crystalline state doesn't change (stable) ([1]; 40° C./75% RH): at least 6 months | Impurity number exceed the qualificated threshold [1, 7]: 0 | Purity [1, 7]: 99.81% | Purity change [1, 7]: −0.05% | Solid form [1, 7]: Form CSI | Impurity number exceed the qualificated threshold [1, 8]: 0 | Purity [1, 8]: 99.92% | Purity change [1, 8]: 0.06% | Solid form [1, 8]: Form CSI | Time for which crystalline state doesn't change ([1]; 60° C./75% RH, open or sealed package): at least 1 month | Impurity number exceed the qualificated threshold [1, 9]: 0 | Purity [1, 9]: 99.86% | Purity change [1, 9]: 0.00% | Solid form [1, 9]: Form CSI | Impurity number exceed the qualificated threshold [1, 10]: 0 | Purity [1, 10]: 99.85% | Purity change [1, 10]: −0.01% | Solid form [1, 10]: Form CSI | Impurity number exceed the qualificated threshold ([1]; Initial (before storage)): 0 | Purity ([1]; Initial (before storage)): 99.86% | Impurity content versus the qualificated threshold ([1]; throughout the stability investigation processes): does not exceed the qualificated threshold; also recorded: did not exceed the qualificated threshold | Time for which chemical purity remains substantially unchanged ([2]; 80° C.): at least 2 days | Chemical stability in words ([2]; 80° C.): basically remains unchanged | Final purity ([2]; 80° C.): 99.95% | Purity change ([2]; 80° C.): 0.01% | Initial purity [2]: 99.94% | Physical stability on formulation process (XRPD) [4]: physically stable | Weight gain of Form CSI relative to that of the prior art ([3]; DVS): 1/7 | Weight gain at 80% RH ([3]; DVS): 0.53% | Hygroscopicity class [3]: slightly hygroscopic
